Publication PMC9246256, “Structure-based optimization of type III indoleamine 2,3-dioxygenase 1 (IDO1) inhibitors” (Journal of Enzyme Inhibition and Medicinal Chemistry, 2022)
Values joined by “and” are separate entries in the source; they are usually repeats but may differ in a detail not shown here. Identical values can stand only once. “Also recorded” adds a separate entry of the source. Like-named read-outs stand apart in the source and are kept apart here.

Key:
hIDO1 [1] = biological target: T1, hIDO1 (Homo sapiens, UniProt P14902); experiment: Cellular hIDO1 inhibition (kynurenine production) in transiently transfected HEK 293 T cells; format: cell-based
T1 construct: The full ORF of hIDO1 was cloned into the mammalian expression vector pcDNA6/myc-His; myc-His (vector-encoded); host or cells: HEK 293 T
T1 sequence (P14902 whole entry): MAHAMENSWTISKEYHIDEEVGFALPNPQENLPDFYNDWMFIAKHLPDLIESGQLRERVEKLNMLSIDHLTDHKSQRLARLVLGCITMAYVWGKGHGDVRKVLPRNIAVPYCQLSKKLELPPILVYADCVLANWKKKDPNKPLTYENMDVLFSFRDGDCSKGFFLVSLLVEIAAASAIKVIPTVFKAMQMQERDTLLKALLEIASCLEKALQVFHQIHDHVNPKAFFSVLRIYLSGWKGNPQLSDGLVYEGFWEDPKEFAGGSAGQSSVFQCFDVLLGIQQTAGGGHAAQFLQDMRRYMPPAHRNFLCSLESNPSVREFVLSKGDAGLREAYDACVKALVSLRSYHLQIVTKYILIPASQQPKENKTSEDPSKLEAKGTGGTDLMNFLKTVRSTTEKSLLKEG
Method: (§1) We tested the cellular hIDO1 inhibitory activity and toxicity of 30 active compounds at a single concentration (Figure 6 and Table 8). As some of the aniline derivatives reacted with Ehrlich’s reagent (p-dimethylaminobenzaldehyde, p-DMAB) used to quantify kynurenine, the kynurenine content of these samples was determined by HPLC. To be able to detect also weak inhibition, compounds were tested at the high concentration of 200 µM (Figure 6A and B, filled bars), except for less soluble compounds (52, 148, 149 and 153), which were tested at a concentration of 50 µM (Figure 6A and B, empty bars).
The cDNA encoding hIDO1 (NCBI, NM 0021464.3) was purchased from Origene as pCMV6-Entry vector (RC206592). The full ORF of hIDO1 was cloned into the mammalian expression vector pcDNA6/myc-His from Invitrogen. Human embryonic kidney 293 T (HEK 293 T) cells were transiently transfected with the plasmid construct encoding hIDO1. A 75 cm^2 flask containing HEK 293 T cells at a confluency of 70% was transfected with jetPEI DNA transfection reagent (Polyplus-transfection), according to manufacturer’s protocol. A total of 20 µg of pcDNA-IDO1 along with 5 µg of pcDNA-GFP plasmid were used for the transfection; GFP was used to evaluate transfection efficiency prior to the cellular assays. 16–18 h post-transfection the 293 T cells were detached with trypsin, centrifuged, and re-suspended in 25 mL of DMEM medium without phenol red, supplemented with penicillin and streptomycin, 10% foetal bovine serum and 1 mM pyruvate (Gibco). Subsequently, 100 µL of cells were distributed to each well of two 96-well round-bottom plates that had been pre-loaded with 100 µL DMEM and the small organic test molecule in DMSO (for a final DMSO concentration of 2%). DMEM medium contains 78 µM L-Trp and was supplemented with 500 µM of L-Trp. Cells transfected with hIDO1 were incubated for 7 h at 37 °C in a CO2 incubator. The reaction was stopped in its linear phase by adding trichloroacetic acid (TCA) to the medium at a final concentration of 4%. Plates were centrifuged for 15 min at 4,000 rpm. 100 µL of supernatant was added to 100 µL of 2% (w/v) DMAB in glacial acetic acid. After 10 min the absorbance was measured at a wavelength of 480 nm to detect kynurenine formation. Alternatively, kynurenine content was determined by HPLC as done for the enzymatic assay.

[2] = biological target: T2, purified recombinant IDO1 (Homo sapiens, UniProt P14902); experiment: Enzymatic IDO1 inhibition assay (ascorbate/methylene blue reduction system, HPLC detection of kynurenine); format: biochemical; conditions: for IC50: enzymatic; for LE [kcal/mol/HA]: ligand efficiency, LE = -RT log(IC50)/number of heavy atoms, from enzymatic IC50
T2 construct: Full-length human IDO1 gene was cloned into the pET-28a vector; inferred from pET-28a vector and HisTrap purification; made in house; host or cells: E. coli Rosetta (DE3)
T2 sequence (P14902 whole entry): as above
Method: Enzymatic IC50 values were measured with the ascorbate/methylene blue reduction system[85] in presence of a non-ionic detergent to reduce compound aggregation as described before[28]. Kynurenine and L-Trp concentrations were determined by HPLC through UV detection.
Full-length human IDO1 gene was cloned into the pET-28a vector and expressed in E. coli Rosetta (DE3) cells. […] The culture was harvested and frozen at −80 °C until further use. The frozen cells were lysed by sonication in 20 mM Tris pH 7, 400 mM NaCl, 1 mM MgCl2, 20 mM imidazole, 1 mM DTT, 0.5 mg/mL Lysozyme and Protease inhibitor. After centrifugation, the supernatant was loaded into a HisTrap HP column pre-equilibrated with buffer containing 20 mM Tris pH 7, 500 mM NaCl and 20 mM imidazole, and eluted with the same buffer containing 500 mM imidazole. Fractions containing IDO1 were pooled, concentrated, and injected on a size exclusion chromatography column (HiLoad Superdex S75 16/60) to increase purity. hIDO1 fractions were concentrated to 20 mg/mL in 20 mM Tris pH 7 and 150 mM NaCl.
The enzymatic inhibition assays were performed as described by Takikawa et al.[130] with some modifications. Briefly, the reaction mixture (100 µL) contained potassium phosphate buffer (100 mM, pH 6.5) ascorbic acid (20 mM), catalase (400 units/mL), methylene blue (10 µM), purified recombinant IDO1 (2.5 ng/µL), L-Trp (100 µM), Triton X-100 (0.01%) and DMSO (5 µL). The inhibitors were serially diluted 3-fold for at least 8 different concentrations. After incubation at room temperature for 20 min, the reaction was stopped in its linear phase by addition of trichloroacetic acid solution (40 mL, 30% w/v), and the samples were incubated at 50 °C for 30 min. After centrifugation, 80 µl of supernatant from each well were used for HPLC analysis. The mobile phase for HPLC analysis was composed of 50% (v/v) of methanol and 50% of sodium citrate buffer (40 mM, pH 2.4) containing 400 µM sodium dodecyl sulphate. […] All assays were carried out in duplicates. The activity (Act) of each compound was calculated as Act = RT log(IC50) in analogy to the relation between the binding free energy and the Ki value. The ligand efficiency (LE) was calculated as LE = −Act/NHA, where NHA is the number of non-hydrogen atoms (heavy atoms) in the compound.

HEK 293 T cells [3] = experiment: Cell viability / cellular toxicity (DAPI staining, cytometry); format: cell-based, human; conditions: 7 h
Method: as §1
Following DMSO (negative control) or inhibitor treatments, apoptotic cells were detected by 4′,6-diamidino-2-phenylindole (DAPI) staining. Briefly, after 7 h of incubation, cells were washed with PBS, resuspended in PBS with 1 µg/mL DAPI and immediately analysed using a BD LSR II cytometer. A 405 nm laser with 450/50 nm bandpass filter was used to collect data.

[4] = Compound solubility (qualitative remarks); format: physicochemical
hIDO1 [5] = biological target: T1, hIDO1; experiment: Cellular hIDO1 inhibition (kynurenine production) in transiently transfected HEK 293 T cells; format: cell-based; conditions: HEK 293 T cells transfected with hIDO1; read-out: Cell. IC50 [ μ M] (SD)
IDO1 = conditions: cited from earlier work
TDO = tested on: TDO; set-up: method as in PMID 22616902; conditions: undetectable activity; cited from earlier work
HEK 293 T cells [6] = conditions: previously determined, 200 µM, cited from earlier work
hIDO1 [7] = biological target: T1, hIDO1; conditions: previously determined, cited from earlier work; for Inh. [%]: 200 µM
murine IDO2 = tested on: murine IDO2; set-up: method as in PMID 27469130; conditions: murine IDO2, cellular; cited from earlier work
[8] = L-Trp 100 µM, 0.01% Triton X-100, 5% DMSO, 20 min at room temperature, pH 6.5, duplicates, read-out: IC50 [ μ M] (SD)
[9] = values of Panda and co-workers, not reproduced here, read-out: published IC50 values
[10] = ref 1 of Supporting Information (Röhrig et al. 2021)
[11] = ref 3 of Supporting Information (= main text ref 62)
[12] = ref 3 of Supporting Information (Röhrig et al. 2016)

| Compound | IC50 [2, 8] | LE [kcal/mol/HA] [2] [kcal/mol/HA] | solubility (in words) [4] | melting point [°C] | other results |
| --- | --- | --- | --- | --- | --- |
| O=C(Nc1ccc(Cl)cc1-c1nc[nH]n1)C1CC1 [Compound 149, N-(4-Chloro-2-(1H-1,2,4-triazol-3-yl)phenyl)cyclopropanecarboxamide] | 0.49 µM | 0.48 | less soluble | 183 to 186 | inhibition at 50 µM (hIDO1 [1]): 100%; Tox. [%] (HEK 293 T cells [3]; compound 50 µM): 19 (2) % |
| Nc1cc(F)c(Br)cc1-c1nc[nH]n1 [Compound 144, 4-Bromo-5-fluoro-2-(1H-1,2,4-triazol-3-yl)aniline] | 0.034 µM | 0.73 |  | 243 to 246 | inhibition at 200 µM (hIDO1 [1]): 100%; IC50 (hIDO1 [5]): 0.034 µM; IC50 ([2]; read-out: enzymatic IC50): 0.034 µM; Tox. [%] (HEK 293 T cells [3]; compound 200 µM): 17 (2) % |
| CCCC(=O)Nc1ccc(Cl)cc1-c1nc[nH]n1 [Compound 148, N-(4-Chloro-2-(1H-1,2,4-triazol-3-yl)phenyl)butyramide] | 24 µM and 25 µM | 0.35 | less soluble | 156 to 158 | inhibition at 50 µM (hIDO1 [1]): 93%; Tox. [%] (HEK 293 T cells [3]; compound 50 µM): 17 (2) % |
| Clc1ccc(Nc2cnn[nH]2)cc1 [Compound 10, reference compound] | 56 µM | 0.44 |  |  | IC50 (IDO1; read-out: IC50 value in the original publication): 11.3 µM |
| O=C(Nc1ccc(Cl)cc1-c1nc[nH]n1)C1CCCC1 [Compound 151, N-(4-Chloro-2-(1H-1,2,4-triazol-3-yl)phenyl)cyclopentanecarboxamide] | > 100 µM |  | strongly reduced solubilities | 197 to 199 |  |
| Nc1ccc(F)cc1-c1nc[nH]n1 [Compound 143, 4-Fluoro-2-(1H-1,2,4-triazol-3-yl)aniline] | 0.15 µM | 0.72 |  |  | inhibition at 200 µM (hIDO1 [1]): 86%; IC50 (hIDO1 [5]): 0.25 µM; Tox. [%] (HEK 293 T cells [3]; compound 200 µM): 18 (0.5) % |
| Clc1cccc(-c2nn[nH]c2-c2cccc(Cl)c2)c1 [Compound 64, 4,5-Bis(3-chlorophenyl)-1,2,3-triazole, reference compound] | > 50 µM |  |  |  | IC50 (IDO1; [9]): 2.51 µM |
| Oc1ccc(Cl)cc1-c1cnn[nH]1 [Compound 9] |  |  |  |  | activities on TDO (TDO): > 100 µM; Tox. [%] (HEK 293 T cells [6]; [10]): 4%; Inh. [%] (hIDO1 [7]; [10]): 100% |
| O=C(Nc1ccc(Cl)cc1-c1nc[nH]n1)c1ccccc1 [Compound 153, N-(4-Chloro-2-(1H-1,2,4-triazol-3-yl)phenyl)benzamide] | 9.4 µM and 9.3 µM |  | low solubility; also recorded: less soluble |  | inhibition at 50 µM (hIDO1 [1]): 87%; Tox. [%] (HEK 293 T cells [3]; compound 50 µM): 5.9 (8) % |
| CCOC(=O)c1[nH]nnc1-c1ccc(Cl)cc1 [Compound 65, reference compound] | > 1000 µM |  |  |  | IC50 (IDO1; [9]): 0.39 µM |
| Clc1cccc(-c2cnn[nH]2)c1/C=C/C1CCCCC1 [Compound 42] | 260 µM | 0.24 |  |  | IC50 (murine IDO2): 110 µM; Tox. [%] (HEK 293 T cells [6]; [11]): 5%; Inh. [%] (hIDO1 [7]; [12]): 56% |
| Nc1ccccc1-c1nnc[nH]1 [Compound 139, 3–(2-aminophenyl)-1,2,4-triazole] |  | 0.65 |  |  | Tox. [%] (HEK 293 T cells [6]; [10]): 0%; Inh. [%] (hIDO1 [7]; [10]): 100%; IC50 (hIDO1 [7]; ref 1 of Supporting Information (Röhrig et al. 2021), read-out: IC50 [µM] (cellular)): 4.6 µM |
| Nc1c(F)cccc1-c1nc[nH]n1 [Compound 140, 2-Fluoro-6-(1H-1,2,4-triazol-3-yl)aniline] | 0.81 µM | 0.64 |  |  | inhibition at 200 µM (hIDO1 [1]): 100%; IC50 (hIDO1 [5]): 1.2 µM; Tox. [%] (HEK 293 T cells [3]; compound 200 µM): 17 (3) % |
| Clc1cc(Cl)c(-c2c[nH]nn2)cc1Cl [Compound 52, 4–(2,4,5-Trichlorophenyl)-1,2,3-triazole] | 33 µM | 0.44 | less soluble | 190 to 192 | inhibition at 50 µM (hIDO1 [1]): 44%; Tox. [%] (HEK 293 T cells [3]; compound 50 µM): 7.9 (1) % |
| NC(=O)c1[nH]nnc1-c1ccc(Cl)cc1 [Compound 66, 4–(4-Chlorophenyl)-1H-1,2,3-triazole-5-carboxamide, reference compound] | 800 µM | 0.28 |  |  | IC50 (IDO1; [9]): 0.62 µM |
| O=C(Nc1ccc(Cl)cc1-c1nc[nH]n1)C1CCC1 [Compound 150, N-(4-Chloro-2-(1H-1,2,4-triazol-3-yl)phenyl)cyclobutanecarboxamide] | > 100 µM |  | strongly reduced solubilities | 201 to 203 |  |
| Oc1ccccc1-c1nnc[nH]1 [Compound 138] |  | 0.51 |  |  | Tox. [%] (HEK 293 T cells [6]; [10]): 6%; Inh. [%] (hIDO1 [7]; [10]): 52% |
| Clc1cccc(-c2cnn[nH]2)c1CCc1ccccc1 [Compound 13] | 14 µM | 0.33 |  |  | Tox. [%] (HEK 293 T cells [6]; [11]): 71%; Tox. [%] (HEK 293 T cells [6]; ref 3 of Supporting Information (= main text ref 62), listed as MMG-0472): 70%; Inh. [%] (hIDO1 [7]; [12]): 76% |
